Read-outs that look alike come from different tables or passages of the source.
Columns and labels:
[1] = tested on: human CD4+ T cells; experiment: Cytokines produced by human CD4+ T cells stimulated with PMA/ionomycin; assay type: cell-based; conditions: 10 μM compound, PMA/ionomycin 20 h
Text: Freshly isolated human peripheral blood mononuclear cells (PBMCs) were purchased from Astarte Biologics (Redmond, Wash.). CD4+ T cells were isolated from the PBMCs using the EasySep Negative Selection Human CD4+ T Cell Enrichment Kit (Stemcell Technologies, Vancouver, Canada) according to manufacturer's instructions briefly as follows: Unwanted cells were specifically labeled with a cocktail of bispecific tetrameric antibody complexes (TAC) against dextran and cell surface antigens (CD8, CD14, CD16, CD19, CD20, CD36, CD56, CD66b, CD123, TCRγ/δ, glycophorin A). Labeled cells were then targeted for removal by incubation with dextran-coated magnetic particles, leaving the desired CD4+ T cells.
Human CD4+ T cells, isolated as shown in protocol A, were seeded at 2e6 cells/ml in RPMI 1640 containing 10% (v/v) charcoal-dextran treated, heat inactivated FBS (Omega Scientific, Tarzana, Calif.), 0.05 mM 2-Mercaptoethanol (Sigma-Aldrich, St. Louis, Mo.), and 1×Pen/Strep Amphotericin B (Lonza, Allendale, N.J.). Cells were pre-treated with test compounds (10 μM) for 1 h at 37° C. in a humidified atmosphere at 5% CO2. Cells were then stimulated with 50 ng/ml phorbol 12-myristate 13-acetate (PMA)(Sigma-Aldrich, St. Louis, Mo.)+1 μg/ml ionomycin (Life Technologies, Grand Island, N.Y.) for 20 h at 37° C. in a humidified atmosphere at 5% CO2. Supernatant was collected and analyzed using Bio-Plex Pro Human Th17 Cytokine 15-Plex Panel (Bio-Rad Laboratories, Hercules, Calif.) as per manufacturer's protocols. Magnetic beads were read on the Bio-Plex MAGPIX multiplex reader instrument using the accompanying xPONENT 4.2 acquisition software (Bio-Rad Laboratories, Hercules, Calif.). Data were analyzed via the Bio-Plex Manager software v6.1 (Bio-Rad Laboratories).
IL-1β, IL-2, IL-7, and IL-12 (p70) were below the limit of detection under conditions used. The concentrations of the observed analytes of the DMSO control, from top to bottom as listed, are as follows: 31, 585, 24178, 22, 48, 91, 728, 94, 156, 705, 15, 1045, 5501 pg/ml.

[2] = target: T1, PBRM1 (Homo sapiens, UniProt Q86U86); experiment: Bromodomain binding assay: PBRM1
T1 construct: read out by qPCR of the phage DNA
T1 sequence (Q86U86 whole entry): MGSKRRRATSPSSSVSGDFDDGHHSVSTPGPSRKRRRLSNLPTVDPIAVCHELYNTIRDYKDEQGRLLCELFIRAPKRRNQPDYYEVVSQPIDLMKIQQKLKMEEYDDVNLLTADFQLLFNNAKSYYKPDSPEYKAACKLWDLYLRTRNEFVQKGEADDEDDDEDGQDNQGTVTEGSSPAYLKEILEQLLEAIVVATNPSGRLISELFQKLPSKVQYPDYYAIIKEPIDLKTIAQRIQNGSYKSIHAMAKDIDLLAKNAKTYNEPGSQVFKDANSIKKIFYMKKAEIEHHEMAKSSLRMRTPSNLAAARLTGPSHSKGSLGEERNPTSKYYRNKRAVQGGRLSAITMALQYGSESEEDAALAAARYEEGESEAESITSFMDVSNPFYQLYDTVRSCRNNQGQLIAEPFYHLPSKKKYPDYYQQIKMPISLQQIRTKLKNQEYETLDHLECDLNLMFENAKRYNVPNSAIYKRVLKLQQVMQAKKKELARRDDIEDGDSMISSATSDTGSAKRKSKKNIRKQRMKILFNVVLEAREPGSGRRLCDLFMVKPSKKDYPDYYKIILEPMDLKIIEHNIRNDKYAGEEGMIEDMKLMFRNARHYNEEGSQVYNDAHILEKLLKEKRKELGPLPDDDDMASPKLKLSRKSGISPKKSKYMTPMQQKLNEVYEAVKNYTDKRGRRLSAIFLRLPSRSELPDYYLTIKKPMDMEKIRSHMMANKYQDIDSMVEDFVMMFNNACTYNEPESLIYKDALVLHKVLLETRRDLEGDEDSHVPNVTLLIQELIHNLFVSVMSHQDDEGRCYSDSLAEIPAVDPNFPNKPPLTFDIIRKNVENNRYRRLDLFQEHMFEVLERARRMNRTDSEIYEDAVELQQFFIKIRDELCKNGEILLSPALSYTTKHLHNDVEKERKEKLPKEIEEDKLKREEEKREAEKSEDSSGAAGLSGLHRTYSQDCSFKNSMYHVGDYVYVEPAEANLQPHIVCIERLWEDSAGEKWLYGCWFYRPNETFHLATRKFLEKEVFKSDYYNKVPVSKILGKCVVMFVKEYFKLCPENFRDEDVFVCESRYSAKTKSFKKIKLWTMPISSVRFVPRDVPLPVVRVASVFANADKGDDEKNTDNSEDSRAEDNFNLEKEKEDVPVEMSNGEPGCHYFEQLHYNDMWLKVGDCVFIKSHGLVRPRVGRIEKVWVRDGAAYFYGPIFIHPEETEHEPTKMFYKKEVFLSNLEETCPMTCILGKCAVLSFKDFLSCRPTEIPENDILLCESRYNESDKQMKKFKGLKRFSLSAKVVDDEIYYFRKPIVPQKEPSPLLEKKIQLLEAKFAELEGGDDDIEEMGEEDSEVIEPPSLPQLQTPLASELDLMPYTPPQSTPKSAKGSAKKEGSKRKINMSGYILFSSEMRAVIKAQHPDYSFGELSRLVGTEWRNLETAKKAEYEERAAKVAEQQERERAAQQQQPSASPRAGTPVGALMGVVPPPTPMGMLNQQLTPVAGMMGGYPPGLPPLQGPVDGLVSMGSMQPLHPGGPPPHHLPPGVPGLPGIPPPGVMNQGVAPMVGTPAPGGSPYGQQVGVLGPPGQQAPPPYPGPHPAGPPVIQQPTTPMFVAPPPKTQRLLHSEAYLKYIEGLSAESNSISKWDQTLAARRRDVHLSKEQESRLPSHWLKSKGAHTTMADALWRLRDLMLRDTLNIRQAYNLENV
Procedure: (§1) T7 phage strains displaying bromodomains were grown in parallel in 24-well blocks in an E. coli host derived from the BL21 strain. E. coli were grown to log-phase and infected with T7 phage from a frozen stock (multiplicity of infection=0.4) and incubated with shaking at 32° C. until lysis (90-150 minutes). The lysates were centrifuged (5,000×g) and filtered (0.2 μm) to remove cell debris. […] The liganded beads were blocked with excess biotin and washed with blocking buffer (SeaBlock (Pierce), 1% BSA, 0.05 Tween 20, 1 mM DTT) to remove unbound ligand and to reduce non-specific phage binding. […] Test compounds (T62 and 46) were prepared as 1000× stocks in 100% DMSO and subsequently diluted 1:10 in monoethylene glycol (MEG) to create stocks at 100× the screening concentration (resulting stock solution is 10% DMSO/90% MEG). The compounds were then diluted directly into the assays such that the final concentration of DMSO and MEG were 0.1% and 0.9%, respectively. All reactions were performed in polystyrene 96-well plates in a final volume of 0.135 ml. […] The bromodomain concentration in the eluates was measured by qPCR. Compounds were assayed for binding activity against a panel of 40 bromodomain-containing proteins.

[3] = tested on: immortalized normal human bronchial epithelial BEAS-2B cells; experiment: IL-17A- or IL-17F-mediated cytokine response by BEAS-2B cells; assay type: cell-based; conditions: 48 h
Procedure: The virally immortalized, normal human bronchial epithelial cell line BEAS-2B was purchased from ATCC (Manassas, Va.). Primary bronchial epithelial cells isolated from a patient diagnosed with asthma were obtained from Lonza (Allendale, N.J.). Both cells were maintained in complete Bronchial Epithelial Cell Growth Medium (BEGM) (Lonza). Cells were seeded at 1e5 cells/ml and incubated at 37° C. in a humidified atmosphere at 5% CO2 overnight to adhere. Cells were pre-treated with test compounds (10 μM down by ⅕ in a 3- or 4-point serial dilution series) for 1 h at 37° C. in a humidified atmosphere at 5% CO2. DMSO at a final concentration of 0.1% served as the non-inhibited control. Budesonide (Selleck Chemicals, Houston, Tex.), a clinically approved glucocorticoid steroid for the treatment of asthma, was tested as a positive control at 0.25 μM. Cells were stimulated with 50 ng/ml of either human recombinant IL-17A or IL-17F (eBioscience, San Diego, Calif.), for 48 h. Supernatant was then collected and analyzed for cytokine concentrations using the Bio-Plex Pro Human Cytokine 17-Plex Panel (Bio-Rad Laboratories, Hercules, Calif.) according to the manufacturer's instructions. Magnetic beads were measured on the Bio-Plex MAGPIX multiplex reader instrument using the accompanying xPONENT 4.2 acquisition software (Bio-Rad Laboratories). Data were analyzed via the Bio-Plex Manager software v6.1 (Bio-Rad Laboratories). For the primary asthmatic bronchial epithelial cells, five (+IL-17F) to thirteen (+IL-17A) cytokines were in range of detection under the conditions used. […] Select cytokines were analyzed for comparison using the BEAS-2B cell line.

[4] = target: T2, CECR2 (Homo sapiens, UniProt Q9BXF3); experiment: Bromodomain binding assay: CECR2
T2 construct: T7 phage strains displaying bromodomains were grown in parallel; made in house; host or cells: E. coli host derived from BL21, infected with T7 phage
T2 sequence (Q9BXF3 434-538 limits assumed, species assumed): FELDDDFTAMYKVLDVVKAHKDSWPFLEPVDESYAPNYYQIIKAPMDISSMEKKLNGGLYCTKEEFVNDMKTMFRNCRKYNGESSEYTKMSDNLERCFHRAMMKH
Procedure: as §1

Kd [2]: > 20 µM
Kd [4]: > 20 µM
SMILES: CCOc1cc(C(=O)N2CCC(N3CCCC3)CC2)ccc1Nc1cc2c(cn1)N(C)C(=O)c1ccccc1N2C [Compound 46, 3-(2-Ethoxy-4-(4-(pyrrolidin-1-yl)piperidine-1-carbonyl)phenylamino)-5,11-dimethyl-5H-benzo[e]pyrido[3,4-b][1,4]diazepin-10(11H)-one]
inhibition at 10 µM ([1]; read-out: Percent inhibition of G-CSF (relative to DMSO control)): 26.4%
inhibition at 10 µM ([1]; read-out: Percent inhibition of GM-CSF (relative to DMSO control)): 96.7%
inhibition at 10 µM ([1]; read-out: Percent inhibition of IFNγ (relative to DMSO control)): 18.3%
inhibition at 10 µM ([1]; read-out: Percent inhibition of IL-4 (relative to DMSO control)): 11.7%
inhibition at 10 µM ([1]; read-out: Percent inhibition of IL-5 (relative to DMSO control)): 49.1%
inhibition at 10 µM ([1]; read-out: Percent inhibition of IL-6 (relative to DMSO control)): 89.3%
inhibition at 10 µM ([1]; read-out: Percent inhibition of IL-8 (relative to DMSO control)): -109%
inhibition at 10 µM ([1]; read-out: Percent inhibition of IL-10 (relative to DMSO control)): 97.3%
inhibition at 10 µM ([1]; read-out: Percent inhibition of IL-13 (relative to DMSO control)): 32.1%
inhibition at 10 µM ([1]; read-out: Percent inhibition of IL-17A (relative to DMSO control)): 52.2%
inhibition at 10 µM ([1]; read-out: Percent inhibition of MCP-1 (relative to DMSO control)): 67.6%
inhibition at 10 µM ([1]; read-out: Percent inhibition of MIP-1β (relative to DMSO control)): 63.9%
inhibition at 10 µM ([1]; read-out: Percent inhibition of TNFα (relative to DMSO control)): 64%
EC50 ([3]; +50 ng/ml IL-17A, read-out: EC50 values (μM), IL-6): 0.51 µM
EC50 ([3]; +50 ng/ml IL-17A, read-out: EC50 values (μM), IL-8): 0.4 µM
EC50 ([3]; +50 ng/ml IL-17F, read-out: EC50 values (μM), IL-6): 0.38 µM
EC50 ([3]; +50 ng/ml IL-17F, read-out: EC50 values (μM), IL-8): 0.32 µM

Reference: patent US20170008888A1 (KYORIN PHARMACEUTICAL CO., LTD., priority 2014, published 2017)
